The values that follow come from US4062956A, “Substituted 2-(2-hydroxyethyl)tetrahydro-1,4 oxazines and quaternary salts thereof useful for treating spasmodic syndromes” (Centre Europeen de Recherches Mauvernay, priority 1975, dated 1977).

Assay [1] has as its target T1, smooth muscle spasms induced by acetylcholine (jejunum of the rat) (Rattus norvegicus, UniProt P08483).
T1 construct: The isolated organs were kept alive in a thermostatic oxygen Tyrode solution at 30° C; from tissue; host or cells: isolated rat jejunum
Put plainly: In vitro antagonism of acetylcholine-induced smooth muscle spasm, isolated jejunum of the rat (technique of MAGNUS). The following applies: agonist acetylcholine, oxygen Tyrode solution, 30° C; for Kb: read-out: pA2 (converted). As for the experimental part: (§1) The pharmacological studies of the compounds according to the invention were directed essentially to the elucidation of the antispasmodic potentialities of the cations, particularly at the level of smooth muscle spasms induced by acetylcholine, histamine and Ba^++ ions. […] The isolated organs were kept alive in a thermostatic oxygen Tyrode solution at 30° C and their contractions were recorded.

For assay [2], the target named is T2, smooth muscle spasms induced by histamine (ileum of the guinea pig) (Cavia porcellus, UniProt P31389).
T2 construct: The isolated organs were kept alive in a thermostatic oxygen Tyrode solution at 30° C; from tissue; host or cells: isolated guinea pig ileum
T2 sequence (P31389 whole entry): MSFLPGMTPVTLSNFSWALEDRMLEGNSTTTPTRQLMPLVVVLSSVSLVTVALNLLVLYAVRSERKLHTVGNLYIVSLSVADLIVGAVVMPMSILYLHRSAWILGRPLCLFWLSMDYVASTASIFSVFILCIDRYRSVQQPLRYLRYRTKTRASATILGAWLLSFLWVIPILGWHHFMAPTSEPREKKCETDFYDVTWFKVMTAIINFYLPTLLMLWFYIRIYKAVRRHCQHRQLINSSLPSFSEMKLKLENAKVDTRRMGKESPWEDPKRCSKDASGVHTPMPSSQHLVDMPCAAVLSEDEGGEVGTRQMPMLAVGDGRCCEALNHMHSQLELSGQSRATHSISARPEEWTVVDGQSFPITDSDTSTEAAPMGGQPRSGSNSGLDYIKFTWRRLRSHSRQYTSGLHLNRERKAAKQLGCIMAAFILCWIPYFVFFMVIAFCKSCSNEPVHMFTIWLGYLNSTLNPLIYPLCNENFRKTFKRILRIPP
Put plainly: In vitro antagonism of histamine-induced smooth muscle spasm, isolated ileum of the guinea pig (technique of MAGNUS). The following applies: agonist histamine, oxygen Tyrode solution, 30° C; for Kb: read-out: pA2 (converted). The procedure: The pharmacological studies of the compounds according to the invention were directed essentially to the elucidation of the antispasmodic potentialities of the cations, particularly at the level of smooth muscle spasms induced by acetylcholine, histamine and Ba^++ ions. These investigations were carried out in vitro according to the technique of MAGNUS (Pflug. Arch. Ges. Physiol. 1904, 102, 349, and 1904, 103, 515 and 525) by using as biological indicators the jejunum of the rat for the first agonist and the ileum of the guinea pig for the two other agonists. The isolated organs were kept alive in a thermostatic oxygen Tyrode solution at 30° C and their contractions were recorded.
The response curve line as a function of the dose enabled the calculation of the affinity parameters (pA2 and pD'2) of the compounds according to the invention for the different types of receptor (VAN ROSSUM J.M. - Arch. Int. Pharmacodyn. 1963, 143, 299 -330).

Assay [3] deals with smooth muscle spasms induced by Ba^++ ions (ileum of the guinea pig). Put plainly: In vitro antagonism of Ba^++-induced smooth muscle spasm, isolated ileum of the guinea pig (technique of MAGNUS). To be noted: agonist Ba^++, oxygen Tyrode solution, 30° C. The procedure:
as §1

Assay [4] concerns smooth muscle spasms induced by acetylcholine, histamine and Ba^++ ions. Put plainly: Type of antagonist exerted, overall from the isolated organ tests (acetylcholine, histamine, Ba^++). Also noted: species or system rat; guinea pig. The following applies: for TYPE OF ANTAGONIST EXERTED: Table I, over the three agonists; for mechanism and intensity of action compared with Tiemonium and papaverine: interpretation of Table I by principles of molecular pharmacology (ARIENS). As for the experimental part:
as §1

Assay [5] deals with smooth muscle spasms induced by acetylcholine (jejunum of the rat). Put plainly: In vitro antagonism of acetylcholine-induced smooth muscle spasm, isolated jejunum of the rat (technique of MAGNUS). To be noted: agonist acetylcholine, oxygen Tyrode solution, 30° C. The procedure:
as §1

T1 sequence (P08483 whole entry): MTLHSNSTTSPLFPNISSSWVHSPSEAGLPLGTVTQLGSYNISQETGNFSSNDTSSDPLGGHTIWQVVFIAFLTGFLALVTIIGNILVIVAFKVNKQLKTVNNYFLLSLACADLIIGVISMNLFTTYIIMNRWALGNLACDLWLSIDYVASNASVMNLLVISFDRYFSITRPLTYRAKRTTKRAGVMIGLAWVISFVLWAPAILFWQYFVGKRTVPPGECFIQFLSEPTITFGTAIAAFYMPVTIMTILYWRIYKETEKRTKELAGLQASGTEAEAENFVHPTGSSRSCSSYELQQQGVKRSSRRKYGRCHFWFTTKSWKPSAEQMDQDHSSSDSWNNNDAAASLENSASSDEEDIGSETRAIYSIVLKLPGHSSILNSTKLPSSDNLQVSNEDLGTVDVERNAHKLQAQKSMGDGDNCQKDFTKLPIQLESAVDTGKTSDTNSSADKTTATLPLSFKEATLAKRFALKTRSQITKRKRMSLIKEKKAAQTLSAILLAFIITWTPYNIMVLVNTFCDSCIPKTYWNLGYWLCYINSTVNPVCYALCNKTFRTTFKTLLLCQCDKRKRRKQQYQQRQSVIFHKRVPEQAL

For orientation: pA2 means a measure of antagonist potency on a negative log scale. As for `C[N+]1(C)CCOC(CC(O)(c2ccccc2)c2ccccc2)C1` (centres unmarked) [Compound 2], the Kb was 0.2 µM in assay [1] and 6.31 µM in assay [2]. For the same molecule, in assay [3], the pA2 is given as 4.90. Further, in assay [4], the “TYPE OF ANTAGONIST EXERTED” value was “Competitive”. In assay [4], the “mechanism and intensity of action compared with Tiemonium and papaverine” value is “great similarity of mechanism and intensity of action between compound no 2 and Tiemonium”.
For Tiemonium [reference compound], the results for the pA2 in assay [1], in assay [2] and in assay [3] were 7, 5.21 and 4.95, respectively. The “TYPE OF ANTAGONIST EXERTED” value in assay [4] is listed as “Competitive”.
As to `C[N+]1(C)CCOC(CC(O)(c2ccc(F)cc2)c2ccc(F)cc2)C1` (centres unmarked) [Compound 7], in assay [1], the Kb is 3.47 µM. The “pD'2” value in assay [5] is recorded as 3.21. Also, in assay [2], the “pD'2” value came to 3.70 and the Kb is 10 µM. Besides, in assay [3], the pA2 came out at 5.87 and the “pD'2” value is 4.04. Further, in assay [4], the “TYPE OF ANTAGONIST EXERTED” value is reported as “Dualist”; the “mechanism and intensity of action compared with Tiemonium and papaverine” value was “a mechanism of action which brings into play at the same time the competitive mechanism of Tiemonium and the non-competitive mechanism of papaverine”.
For the molecule `COc1ccc(Cc2nccc3cc(OC)c(OC)cc23)cc1OC` [Papaverine, papaverine, reference compound], the “pD'2” value in assay [5] is recorded as 5.03; in assay [2], 4.98; in assay [3], 4.78.
